Laboratory results published in ChEMBL document CHEMBL1201862, “PubChem BioAssay data set” (2004).
Activity calls are given as the source filed them.

Legend:
[1] = growth suppression of PTEN-null colon cells, dose response, cell-based, HCT116 PTEN knockout (AID 1047); type: functional;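 further: HCT116 colon tumor cells with PTEN knocked out; cells exposed to compound for 60 hours before readout; potency for loss of cell viability measured by luminescence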
[2] = growth suppression of beta-catenin-knockout colon cells, dose response, cell-based, HCT116, human colon tumor (AID 1045); type: functional;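 further: HCT116 colon tumor cells with beta catenin knocked out; cells exposed to compound for 60 hours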
[3] = biological target: Sphingosine 1-phosphate receptor 2 (Homo sapiens, UniProt O95136); assay: Dose Response Cell Based Assay for Agonists of the S1P2 Receptor. [Related pubchem assays: 729, 736, 843 ]; type: functional
Sequence of Sphingosine 1-phosphate receptor 2 (O95136 whole entry): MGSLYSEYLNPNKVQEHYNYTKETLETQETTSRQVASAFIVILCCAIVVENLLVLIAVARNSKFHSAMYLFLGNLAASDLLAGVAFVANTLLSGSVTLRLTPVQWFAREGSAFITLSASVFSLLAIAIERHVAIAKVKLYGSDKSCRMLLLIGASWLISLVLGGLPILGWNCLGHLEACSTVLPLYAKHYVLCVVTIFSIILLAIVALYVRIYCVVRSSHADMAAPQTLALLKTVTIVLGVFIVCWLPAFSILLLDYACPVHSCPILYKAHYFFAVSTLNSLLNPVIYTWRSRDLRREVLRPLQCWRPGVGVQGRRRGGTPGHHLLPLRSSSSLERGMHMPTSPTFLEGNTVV

Protein RecA = biological target: T1, Protein RecA (Mycobacterium tuberculosis, UniProt P9WHJ3); assay: Fluorescence Cell-Free Homogeneous Dose Retest to Identify Inhibitors of RecA-Intein Splicing Activity. [Related pubchem assays (depositor defined):AID2097, AID2223, AID489010, AID492950]; type: functional
T1 sequence (P9WHJ3 whole entry): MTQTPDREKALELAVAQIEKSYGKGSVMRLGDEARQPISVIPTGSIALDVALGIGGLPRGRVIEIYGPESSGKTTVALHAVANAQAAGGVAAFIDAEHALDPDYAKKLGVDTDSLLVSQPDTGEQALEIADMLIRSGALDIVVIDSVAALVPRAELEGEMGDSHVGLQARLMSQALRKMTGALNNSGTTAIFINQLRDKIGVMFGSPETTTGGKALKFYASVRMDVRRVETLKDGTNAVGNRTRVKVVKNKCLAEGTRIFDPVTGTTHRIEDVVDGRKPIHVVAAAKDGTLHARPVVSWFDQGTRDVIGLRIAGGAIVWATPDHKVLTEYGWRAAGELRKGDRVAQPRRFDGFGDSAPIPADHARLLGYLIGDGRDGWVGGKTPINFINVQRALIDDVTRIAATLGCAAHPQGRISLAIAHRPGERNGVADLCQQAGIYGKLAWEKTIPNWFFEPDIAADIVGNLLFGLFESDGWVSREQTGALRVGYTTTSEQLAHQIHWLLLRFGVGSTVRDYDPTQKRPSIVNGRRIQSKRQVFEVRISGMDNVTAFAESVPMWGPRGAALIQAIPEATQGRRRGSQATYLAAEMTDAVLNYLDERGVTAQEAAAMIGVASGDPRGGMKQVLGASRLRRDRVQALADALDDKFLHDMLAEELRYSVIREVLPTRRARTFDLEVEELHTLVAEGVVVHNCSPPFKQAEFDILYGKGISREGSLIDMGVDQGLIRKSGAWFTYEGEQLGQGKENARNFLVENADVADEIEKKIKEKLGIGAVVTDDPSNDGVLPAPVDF

[4] = M. tuberculosis H37Rv growth inhibitors, H37Rv strain (AID 1626); type: functional
[5] = biological target: T2, RNA-binding protein pos-1 (Caenorhabditis elegans, UniProt G5EF15); assay: inhibitors of POS-1/mex-3 RNA binding, dose response, biochemical, fluorescence polarization (AID 1964);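 further: purified POS-1 fused to maltose binding protein made in E. coli; potency of compounds blocking POS-1 binding to fluorescent RNA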
T2 sequence (G5EF15 whole entry): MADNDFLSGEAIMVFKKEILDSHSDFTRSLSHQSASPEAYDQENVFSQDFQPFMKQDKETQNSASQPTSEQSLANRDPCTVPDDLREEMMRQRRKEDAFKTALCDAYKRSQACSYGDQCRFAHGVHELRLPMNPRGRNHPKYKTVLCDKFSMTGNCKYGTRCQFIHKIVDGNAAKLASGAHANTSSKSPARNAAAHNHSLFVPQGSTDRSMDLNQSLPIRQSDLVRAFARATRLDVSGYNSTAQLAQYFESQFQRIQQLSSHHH

[6] = biological target: T3, Zinc finger protein mex-5 (Caenorhabditis elegans, UniProt Q9XUB2); assay: MEX-5/TCR-2 RNA interaction inhibitors, dose response, biochemical, C. elegans, fluorescence polarization (AID 1960)
T3 sequence (Q9XUB2 whole entry): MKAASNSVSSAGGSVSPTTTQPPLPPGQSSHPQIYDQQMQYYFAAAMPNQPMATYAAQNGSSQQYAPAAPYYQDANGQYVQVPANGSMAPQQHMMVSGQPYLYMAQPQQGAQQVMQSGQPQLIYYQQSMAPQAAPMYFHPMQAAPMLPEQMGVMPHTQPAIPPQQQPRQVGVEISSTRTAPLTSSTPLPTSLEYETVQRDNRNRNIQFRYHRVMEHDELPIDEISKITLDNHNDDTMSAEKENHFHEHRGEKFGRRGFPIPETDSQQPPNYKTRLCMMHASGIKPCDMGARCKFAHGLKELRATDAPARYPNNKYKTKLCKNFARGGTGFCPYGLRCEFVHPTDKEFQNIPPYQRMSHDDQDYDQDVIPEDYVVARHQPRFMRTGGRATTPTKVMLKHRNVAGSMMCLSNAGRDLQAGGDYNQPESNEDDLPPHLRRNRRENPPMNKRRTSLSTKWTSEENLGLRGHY

[7] = inhibitors of Bluetongue virus cytopathic effect, confirmation, arbovirus, BSR cells (AID 1250); type: functional;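 further: protection from viral cytopathic effect measured as cell viability by ATP luminescence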
[8] = biological target: FAD-linked sulfhydryl oxidase ALR (Homo sapiens, UniProt P55789); assay: inhibitors of human ALR sulfhydryl oxidase, dose response, biochemical, H2O2 detection, luminescence, cherry-pick (AID 493248)
Sequence of FAD-linked sulfhydryl oxidase ALR (P55789 whole entry): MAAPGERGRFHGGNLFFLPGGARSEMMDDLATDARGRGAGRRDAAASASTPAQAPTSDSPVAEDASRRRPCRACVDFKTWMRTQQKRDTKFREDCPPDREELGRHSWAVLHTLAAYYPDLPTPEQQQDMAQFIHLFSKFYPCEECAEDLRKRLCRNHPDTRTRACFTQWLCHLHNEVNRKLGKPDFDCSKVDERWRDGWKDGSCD

Estrogen receptor = biological target: T4, Estrogen receptor (Homo sapiens, UniProt P03372);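 further: potency for inhibiting coactivator peptide recruitment to the receptor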
T4 sequence (P03372 whole entry): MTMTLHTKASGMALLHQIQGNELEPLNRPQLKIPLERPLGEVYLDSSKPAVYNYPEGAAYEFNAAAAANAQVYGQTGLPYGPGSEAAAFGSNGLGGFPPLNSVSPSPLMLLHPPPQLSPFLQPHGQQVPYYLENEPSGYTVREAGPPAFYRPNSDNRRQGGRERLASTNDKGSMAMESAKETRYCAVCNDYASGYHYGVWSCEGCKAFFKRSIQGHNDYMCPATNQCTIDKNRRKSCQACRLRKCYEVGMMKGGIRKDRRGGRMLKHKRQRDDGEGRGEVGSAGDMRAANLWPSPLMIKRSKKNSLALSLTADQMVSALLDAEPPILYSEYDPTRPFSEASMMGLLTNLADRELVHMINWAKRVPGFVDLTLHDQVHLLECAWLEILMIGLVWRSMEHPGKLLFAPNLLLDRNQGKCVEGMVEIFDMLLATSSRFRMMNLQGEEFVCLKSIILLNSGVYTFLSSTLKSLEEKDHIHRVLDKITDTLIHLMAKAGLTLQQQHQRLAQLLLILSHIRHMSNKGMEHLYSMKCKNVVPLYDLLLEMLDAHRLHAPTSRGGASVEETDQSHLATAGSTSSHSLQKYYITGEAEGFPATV

[9] = biological target: T5, Heat shock factor protein 1 (Mus musculus, UniProt P38532); assay: HSF1 potentiators in luciferase reporter cells, confirmation, cell-based, NIH3T3, luminescence, dose retest (AID 435004); type: functional;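 further: stress induced by proteasome inhibitor MG132 added 30 min after compound; luciferase reporter driven by HSF1 response element in NIH3T3 cells; actives raise luminescence as potentiators of the MG132 stress response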
T5 sequence (P38532 whole entry): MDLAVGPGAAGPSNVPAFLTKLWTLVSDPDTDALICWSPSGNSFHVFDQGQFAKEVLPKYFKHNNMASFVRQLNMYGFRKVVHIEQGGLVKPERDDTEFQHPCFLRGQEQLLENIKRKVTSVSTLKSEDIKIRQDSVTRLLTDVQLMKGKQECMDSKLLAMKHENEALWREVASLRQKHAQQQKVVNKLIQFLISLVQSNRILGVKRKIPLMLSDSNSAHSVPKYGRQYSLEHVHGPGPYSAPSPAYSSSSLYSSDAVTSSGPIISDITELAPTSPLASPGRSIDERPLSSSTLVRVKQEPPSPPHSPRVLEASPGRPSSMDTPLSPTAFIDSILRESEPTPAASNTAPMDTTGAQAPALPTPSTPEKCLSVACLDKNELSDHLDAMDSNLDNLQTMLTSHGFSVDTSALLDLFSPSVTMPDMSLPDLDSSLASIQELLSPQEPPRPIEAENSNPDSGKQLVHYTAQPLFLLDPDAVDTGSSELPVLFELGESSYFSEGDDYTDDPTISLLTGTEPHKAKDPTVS

[10] = NIH-3T3 fibroblast cytotoxicity, dose response, cytotoxicity control, cell-based, fluorescence, Alamar Blue, secondary assay (AID 2327); type: functional;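 further: NIH-3T3 mouse fibroblasts cultured with fluconazole at 8 µg/mL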
[11] = C. albicans growth with fluconazole, confirmation, fluorescence, retest (AID 2467); type: functional, cell-based
[12] = inhibitors of intracellular T. cruzi replication, confirmation, NIH3T3 host cells, beta-gal luminescence (AID 2044); type: functional, cell-based;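 further: intracellular parasites grown in NIH/3T3 mouse fibroblasts as host cells; luminescent beta-galactosidase reporter signal from transgenic T. cruzi replicating inside host cells; inhibitors lower the luminescence signal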
[13] = cytotoxicity toward NIH3T3 fibroblasts, dose response, counter-screen, cell-based, ATP luminescence, mouse fibroblasts (AID 2010); type: functional;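 further: cells exposed to compound for about 90 hours before reading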
Jurkat = assay: antigen receptor-induced NF-kB inhibitors, dose response, Jurkat, luciferase reporter, luminescence, B- and T-cell (AID 489004); type: functional, cell-based; conditions: Homo sapiens;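 further: NF-kB luciferase reporter Jurkat cells stimulated with PMA plus ionomycin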
[14] = cytotoxicity in HEK-293T NF-kB-Luc cells, dose response, cytotoxicity control for B/T-cell NF-kB inhibitor project, cell-based, uHTS hits (AID 489019); type: functional;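 further: IC50 reflects cytotoxicity as loss of cell viability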
[15] = biological target: T6, Microphthalmia-associated transcription factor (Homo sapiens, UniProt O75030); assay: TRPM1 promoter luciferase signal decrease, dose response, MITF inhibitor project, cell-based, SK-MEL-5, cherry-picked, set 3 (AID 493073); type: functional
T6 sequence (O75030 whole entry): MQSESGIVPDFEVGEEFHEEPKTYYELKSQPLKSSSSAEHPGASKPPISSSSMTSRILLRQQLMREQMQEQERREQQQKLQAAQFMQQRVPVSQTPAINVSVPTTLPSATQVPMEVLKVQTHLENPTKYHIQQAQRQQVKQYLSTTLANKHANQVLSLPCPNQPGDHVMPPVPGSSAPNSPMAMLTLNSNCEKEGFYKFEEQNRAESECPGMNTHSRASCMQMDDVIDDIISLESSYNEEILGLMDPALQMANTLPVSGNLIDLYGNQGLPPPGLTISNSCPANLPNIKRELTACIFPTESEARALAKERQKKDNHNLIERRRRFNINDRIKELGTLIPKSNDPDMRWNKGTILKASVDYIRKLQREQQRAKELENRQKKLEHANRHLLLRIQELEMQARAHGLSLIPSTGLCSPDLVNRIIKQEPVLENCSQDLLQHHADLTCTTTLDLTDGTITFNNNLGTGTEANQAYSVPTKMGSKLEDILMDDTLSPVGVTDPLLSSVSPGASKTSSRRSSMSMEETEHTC

INS1 = assay: beta cell apoptosis inhibitors, cytokine rescue, dose response, luminescence, retest (AID 449756); type: functional, cell-based; conditions: Rattus norvegicus;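 further: cell death triggered by IL-1 beta plus TNF-alpha plus IFN-gamma mixture; protective hits raise ATP signal compared with cytokine alone wells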
[16] = biological target: T7, COUP transcription factor 2 (Homo sapiens, UniProt P24468); assay: Luminescence-based cell-based high throughput dose response assay to identify inhibitors of COUP-TFII (NR2F2).; type: functional;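 further: HEK293 cells transiently cotransfected with COUP-TFII expression vector and reporter; luciferase reporter luminescence driven by COUP-TFII from the pX2-168 reporter plasmid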
T7 sequence (P24468 whole entry): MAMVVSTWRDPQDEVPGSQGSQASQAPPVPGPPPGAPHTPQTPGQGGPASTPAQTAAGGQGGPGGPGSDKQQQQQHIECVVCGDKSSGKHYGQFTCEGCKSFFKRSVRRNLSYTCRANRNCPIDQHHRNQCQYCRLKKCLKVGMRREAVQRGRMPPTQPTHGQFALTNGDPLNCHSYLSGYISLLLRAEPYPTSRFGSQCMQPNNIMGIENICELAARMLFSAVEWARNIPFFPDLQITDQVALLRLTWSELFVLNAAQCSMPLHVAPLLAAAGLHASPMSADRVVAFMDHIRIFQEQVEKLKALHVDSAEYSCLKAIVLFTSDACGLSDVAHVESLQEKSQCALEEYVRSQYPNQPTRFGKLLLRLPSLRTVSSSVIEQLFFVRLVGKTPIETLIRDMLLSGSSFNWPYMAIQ

[17] = biological target: Luciferin 4-monooxygenase (Photinus pyralis, UniProt P08659); assay: firefly luciferase enzyme inhibitors, dose response, biochemical, luminescence (AID 1891)
Sequence of Luciferin 4-monooxygenase (P08659 whole entry): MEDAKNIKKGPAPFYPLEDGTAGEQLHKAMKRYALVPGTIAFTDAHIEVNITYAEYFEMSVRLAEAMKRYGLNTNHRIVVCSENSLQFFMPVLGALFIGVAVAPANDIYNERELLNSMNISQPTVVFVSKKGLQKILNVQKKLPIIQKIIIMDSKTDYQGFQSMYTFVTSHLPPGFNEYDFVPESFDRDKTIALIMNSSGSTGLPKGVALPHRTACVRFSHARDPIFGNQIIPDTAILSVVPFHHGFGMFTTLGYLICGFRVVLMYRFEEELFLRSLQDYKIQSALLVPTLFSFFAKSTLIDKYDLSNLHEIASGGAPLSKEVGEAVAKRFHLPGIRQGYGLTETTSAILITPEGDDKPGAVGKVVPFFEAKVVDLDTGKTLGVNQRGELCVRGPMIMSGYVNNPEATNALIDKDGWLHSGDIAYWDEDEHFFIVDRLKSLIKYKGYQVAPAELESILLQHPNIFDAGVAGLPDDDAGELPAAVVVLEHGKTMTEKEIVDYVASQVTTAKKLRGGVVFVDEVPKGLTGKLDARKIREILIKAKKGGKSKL

[18] = Luminescence Cell-Based Dose Confirmation HTS to Identify Inhibitors of Platelet Dense Granule Release. [Related pubchem assays: 1663 (Primary HTS), 1678 (Summary of Project)]; type: functional

CCC(C)NC(=O)c1c(N)n(Cc2ccc3c(c2)OCO3)c2nc3ccccc3nc12 (stereo unspecified)
EC50 [1]: 15.3 µM (active)
EC50 [2]: 14.2 µM (active)
EC50 [3]: 2.41 µM (active)
EC50 (Protein RecA): > 380 µM (inconclusive)

CCOC(=O)/C=C/C(=O)Nc1nccs1
IC50 [4]: > 100 µM (active)

CC(C)CC1=NN2C(=N)/C(=C/c3c[nH]c4ccccc34)C(=O)N=C2S1
EC50 [5]: 34.2 µM (inconclusive)
EC50 [6]: 47.4 µM (active)
IC50 [7]: 32.1 µM (active)

Cc1cccc(C(=O)Nc2scc(CC(C)C)c2C(=O)O)c1
IC50 [7]: 32.3 µM (active)
AC50 [8]: 0.016 µM (active)

COc1cc(-c2cc(C(=O)Nc3nc4ccccc4s3)c3ccccc3n2)cc(OC)c1OC
IC50 [4]: > 100 µM (active)

CC(=O)c1c(C)n(C)c2ccc(O)cc12
IC50 [4]: > 100 µM (active)

COc1ccc(/C=C/C(O)=C2/C(=O)N(C)C3(C)CC2c2ccccc2O3)cc1 (stereo unspecified)
IC50 (Estrogen receptor): > 50 µM (not active)
EC50 [1]: 10.7 µM (active)
EC50 [2]: 8.06 µM (active)
EC50 [9]: > 260 µM (inactive)

COc1ccc2cc(S(=O)(=O)NCCCN3CCOCC3)ccc2c1
EC50 [3]: > 50 µM (not active)

CN(C)c1cc[n+](CC(=O)c2ccc(-c3ccccc3)cc2)cc1
EC50 [10]: > 160 µM (inactive)
EC50 [11]: 2 µM (active)
EC50 [12]: 0.515 µM (active)
EC50 [13]: > 60 µM (not active)
IC50 (Jurkat): 4.41 µM (active)
IC50 [14]: > 80 µM (inactive)
AC50 [15]: 2.6 µM (active)
AC50 (INS1): 1.55 µM (active)
IC50 [16]: 10.2 µM (inactive)

COC(=O)c1ccc2c(=O)n(CC3CCCO3)c(SCC(=O)Nc3ccccc3Cl)nc2c1 (stereo unspecified)
IC50 (Estrogen receptor): 20.9 µM (active)

COC(=O)c1oc2ccc(Br)cc2c1NC(=O)CCCN1C(=O)c2ccccc2C1=O
IC50 (Estrogen receptor): 42.3 µM (not active)

O=C1CCCC(=O)C1=CNCCc1ccccc1
EC50 [17]: > 112 µM (not active)
EC50 [18]: > 112 µM (not active)
EC50 [3]: > 50 µM (not active)
